Where two headings read alike, the source gives them in different places.
Legend:
[1] = target: T1, mouse plasma DPPIV (Mus musculus, UniProt P28843); assay: DPPIV enzymatic activity in mouse plasma; type: biochemical; conditions: C57BL/6 mouse plasma; H-Gly-Pro-AMC substrate
T1 construct: from tissue; host or cells: mouse plasma (C57BL/6, EDTA)
Description: Approximately 500 μL of whole blood from one C57BL/6 mouse was harvested into BD Microtainer® tubes (K2) EDTA (#365974, Becton Dickinson and Co.) via terminal cardiac puncture. The blood sample was immediately centrifuged at approximately 9000 g at 4° C. for 5 minutes. Plasma was separated and stored at −80° C. in aliquots of 300 μL. To assay baseline DPPIV enzymatic exopeptidase activity, 5 μL of thawed, mouse plasma was diluted (1:5) in buffer (100 mM Tris-HCl, 400 mM NaCl, 50 mM salicylic acid, 1 mM EDTA, pH 7.5) and mixed with 35 µL of the same buffer before being pre-incubated with different concentrations of 10 μL of test compounds or DMSO vehicle for 15 minutes at 37° C. in 96-well black plates (Nunc, #237108). After pre-incubation, 50 μL of 200 μM dipeptide substrate H-Gly-Pro-AMC (Bachem, #L-1225) was added to the mixture. The assay was performed for 1 hour at 37° C. 7-Amino-4-Methylcoumarin (AMC) release was detected measuring fluorescence at an excitation wavelength of 360 nm and an emission wavelength of 460 nm using a Multifunction Microplate Reader (Synergy 4, Biotek). All measurements were carried out at least in duplicate.

[2] = target: T2, recombinant human DPPIV (rhDPPIV) (Homo sapiens, UniProt P27487); assay: DPPIV enzymatic activity assay; type: biochemical; conditions: H-Gly-Pro-pNA substrate
T2 construct: purchased R&S system (so in the source)

[3] = target: T3, recombinant human DPP9 (rhDPP9) (Homo sapiens, UniProt Q86TI2); assay: DPP9 enzymatic activity assay; type: biochemical; conditions: H-Gly-Pro-AMC substrate
T3 construct: purchased R&S system (so in the source)
Description: 7-Amino-4-Methylcoumarin (AMC) release was detected by measuring fluorescence at Ex/Em 380/460 nm using a Multifunction Microplate Reader (Synergy 4, Biotek). All measurements were carried out in triplicate.

[4] = target: T4, recombinant human FAPα (rhFAPα) (Homo sapiens, UniProt Q12884); assay: FAPα enzymatic exopeptidase (dipeptidase) activity assay; type: biochemical; conditions: for inhibition at 1 µM: read-out: rhFAPα (% exo inh @ 1 μM)
T4 construct: purchased R&S system (so in the source)
T4 sequence (Q12884 1-760): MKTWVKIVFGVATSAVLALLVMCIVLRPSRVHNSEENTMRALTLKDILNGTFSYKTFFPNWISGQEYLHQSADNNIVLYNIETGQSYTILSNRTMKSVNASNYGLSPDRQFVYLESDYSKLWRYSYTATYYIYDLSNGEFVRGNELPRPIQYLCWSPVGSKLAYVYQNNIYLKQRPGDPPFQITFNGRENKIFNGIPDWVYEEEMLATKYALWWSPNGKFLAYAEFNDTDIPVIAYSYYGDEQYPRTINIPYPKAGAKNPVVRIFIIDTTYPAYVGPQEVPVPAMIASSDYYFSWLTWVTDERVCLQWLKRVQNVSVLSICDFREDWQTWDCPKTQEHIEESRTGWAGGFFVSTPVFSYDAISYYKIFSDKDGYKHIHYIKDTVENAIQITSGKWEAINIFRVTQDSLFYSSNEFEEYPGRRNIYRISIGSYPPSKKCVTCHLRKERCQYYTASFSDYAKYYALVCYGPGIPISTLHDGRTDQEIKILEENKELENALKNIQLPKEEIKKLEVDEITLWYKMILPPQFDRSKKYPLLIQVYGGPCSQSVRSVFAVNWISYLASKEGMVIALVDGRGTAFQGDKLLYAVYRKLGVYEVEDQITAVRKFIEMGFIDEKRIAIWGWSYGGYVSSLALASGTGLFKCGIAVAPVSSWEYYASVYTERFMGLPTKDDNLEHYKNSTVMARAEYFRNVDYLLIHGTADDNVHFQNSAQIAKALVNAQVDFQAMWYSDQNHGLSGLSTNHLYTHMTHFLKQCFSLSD

[5] = Intravenous and oral bioavailability in mice; type: in vivo; conditions: mouse; for AUC(0-t): oral (PO) 10 mg/kg single dose; for bioavailability: PO 10 mg/kg vs IV 2 mg/kg, read-out: F (bioavailability)
Description: The pharmacokinetic properties of exemplary test compounds were assayed after administration of an intravenous (IV) 2 mg/kg or oral (PO) 10 mg/kg single dose in mice. Exemplary test compounds were formulated at 0.4 and 1 mg/ml in a vehicle containing Poly-Ethylene Glycol 200 (PEG200; Cat. No. #P3015, Sigma Aldrich) and distilled water (dH2O) (50/50, v/v) as dosing solutions for intravenous and oral administration, respectively.
C57BL/6j and Balb/c mice, approximately 8-10 weeks old, were obtained from the vivarium Fundación Ciencia & Vida Chile (Santiago, Chile) and maintained in a temperature-controlled room with 12/12 hr light/dark schedule with food and water ad libitum. Animals were acclimated for a minimum period of 4 days upon arrival at the testing facility.
On the day of study, mice were weighed and identified by marking the tail with numbers using a non-toxic permanent marker for designation into the experimental groups (n=3 per group). Each mouse in the IV dosing groups received a systemic bolus of 2 mg/kg dosing solution via the caudal vein.
Non-dosed mice were used to collect samples of zero time points. […] Blood samples were centrifuged immediately at 9,000 g at 4° C. for 5 min and the plasma was separated.
The plasma samples were analyzed by QTRAP 4500 triple quadrupole mass spectrometer (Applied Biosystems SCIEX) in positive or negative ion mode depending on the tested compound and interfaced with an ekspert ultraLC 100-XL UPLC System (eksigent) to determine the concentration of the exemplary test compound. […] The precipitated samples were centrifuged at 6,100 g for 30 min at 4° C. Following centrifugation, an aliquot of each supernatant was transferred into a clean sample vial and diluted with two volumes of aqueous mobile phase (0.2% formic acid in water). Samples were injected onto a reverse phase analytical column (YMC Triart C18; 2.0×50 mm; 1.9 μm; YMC CO) and eluted with a gradient of 0.1 or 0.2% formic acid in Acetonitrile. Test compound and internal standard were monitored by a multiple reaction monitoring (MRM) experiment using Analyst software (v1.6.2, Applied Biosystems SCIEX). Quantitation was conducted using MultiQuant software (v2.1, Applied Biosystems SCIEX) and the resulting calibration curve was fitted with a linear or quadratic regression and 1/x weighting.
IV and PO PK parameters were calculated from the concentration-time data using Phoenix WinNonlin software (v6.4, Certara, Princeton, N.J.) by noncompartmental analysis. Area under the concentration-time curve (AUClast) was estimated using a log-linear trapezoidal method, from the dosing time to the last measurable concentration.

[6] = Table 2, exopeptidase, Z-Gly-Pro-AMC, read-out: rhFAPα (exo IC50)
[7] = Table 3, exopeptidase, read-out: rhFAPα (exo IC50)
[8] = 1 μM test compound, Z-Gly-Pro-AMC substrate

T1 sequence (P28843 37-760 limits assumed): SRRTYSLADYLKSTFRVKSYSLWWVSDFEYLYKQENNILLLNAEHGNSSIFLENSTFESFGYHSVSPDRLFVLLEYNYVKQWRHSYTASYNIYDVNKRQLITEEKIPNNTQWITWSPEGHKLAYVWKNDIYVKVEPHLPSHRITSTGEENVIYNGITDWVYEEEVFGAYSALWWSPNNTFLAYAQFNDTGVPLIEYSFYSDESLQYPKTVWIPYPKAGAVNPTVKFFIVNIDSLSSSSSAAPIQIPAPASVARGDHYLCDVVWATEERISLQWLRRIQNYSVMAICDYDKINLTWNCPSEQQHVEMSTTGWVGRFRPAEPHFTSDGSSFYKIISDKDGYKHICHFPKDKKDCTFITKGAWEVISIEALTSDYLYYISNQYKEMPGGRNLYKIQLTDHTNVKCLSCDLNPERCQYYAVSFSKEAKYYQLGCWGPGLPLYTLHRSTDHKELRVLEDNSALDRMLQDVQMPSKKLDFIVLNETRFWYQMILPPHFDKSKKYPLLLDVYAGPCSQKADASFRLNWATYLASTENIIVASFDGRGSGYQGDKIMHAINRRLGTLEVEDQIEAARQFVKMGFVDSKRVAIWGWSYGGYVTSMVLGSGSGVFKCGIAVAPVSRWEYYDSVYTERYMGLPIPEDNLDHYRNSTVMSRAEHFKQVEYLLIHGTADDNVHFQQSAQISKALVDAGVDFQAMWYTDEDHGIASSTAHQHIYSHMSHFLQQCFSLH
T2 sequence (P27487 whole entry): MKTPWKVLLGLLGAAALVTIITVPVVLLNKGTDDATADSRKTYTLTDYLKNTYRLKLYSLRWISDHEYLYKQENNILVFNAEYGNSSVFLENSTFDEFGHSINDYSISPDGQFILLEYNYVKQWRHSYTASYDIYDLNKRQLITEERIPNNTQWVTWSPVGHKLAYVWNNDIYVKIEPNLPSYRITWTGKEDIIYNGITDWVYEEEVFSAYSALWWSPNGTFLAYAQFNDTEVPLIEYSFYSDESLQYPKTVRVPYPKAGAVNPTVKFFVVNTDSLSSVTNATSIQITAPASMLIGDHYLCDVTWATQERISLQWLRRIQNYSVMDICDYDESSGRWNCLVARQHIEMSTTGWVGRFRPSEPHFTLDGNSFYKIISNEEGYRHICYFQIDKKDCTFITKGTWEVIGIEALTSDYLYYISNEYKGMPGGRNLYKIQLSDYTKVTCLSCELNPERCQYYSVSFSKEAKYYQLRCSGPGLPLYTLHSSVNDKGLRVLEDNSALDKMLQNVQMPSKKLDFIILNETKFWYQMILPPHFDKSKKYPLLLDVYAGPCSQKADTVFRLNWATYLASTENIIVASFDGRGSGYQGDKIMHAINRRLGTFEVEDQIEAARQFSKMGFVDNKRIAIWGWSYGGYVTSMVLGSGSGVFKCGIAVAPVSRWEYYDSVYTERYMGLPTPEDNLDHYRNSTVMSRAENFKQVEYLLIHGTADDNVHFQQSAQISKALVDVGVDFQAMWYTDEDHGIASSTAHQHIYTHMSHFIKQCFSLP
T3 sequence (Q86TI2 whole entry): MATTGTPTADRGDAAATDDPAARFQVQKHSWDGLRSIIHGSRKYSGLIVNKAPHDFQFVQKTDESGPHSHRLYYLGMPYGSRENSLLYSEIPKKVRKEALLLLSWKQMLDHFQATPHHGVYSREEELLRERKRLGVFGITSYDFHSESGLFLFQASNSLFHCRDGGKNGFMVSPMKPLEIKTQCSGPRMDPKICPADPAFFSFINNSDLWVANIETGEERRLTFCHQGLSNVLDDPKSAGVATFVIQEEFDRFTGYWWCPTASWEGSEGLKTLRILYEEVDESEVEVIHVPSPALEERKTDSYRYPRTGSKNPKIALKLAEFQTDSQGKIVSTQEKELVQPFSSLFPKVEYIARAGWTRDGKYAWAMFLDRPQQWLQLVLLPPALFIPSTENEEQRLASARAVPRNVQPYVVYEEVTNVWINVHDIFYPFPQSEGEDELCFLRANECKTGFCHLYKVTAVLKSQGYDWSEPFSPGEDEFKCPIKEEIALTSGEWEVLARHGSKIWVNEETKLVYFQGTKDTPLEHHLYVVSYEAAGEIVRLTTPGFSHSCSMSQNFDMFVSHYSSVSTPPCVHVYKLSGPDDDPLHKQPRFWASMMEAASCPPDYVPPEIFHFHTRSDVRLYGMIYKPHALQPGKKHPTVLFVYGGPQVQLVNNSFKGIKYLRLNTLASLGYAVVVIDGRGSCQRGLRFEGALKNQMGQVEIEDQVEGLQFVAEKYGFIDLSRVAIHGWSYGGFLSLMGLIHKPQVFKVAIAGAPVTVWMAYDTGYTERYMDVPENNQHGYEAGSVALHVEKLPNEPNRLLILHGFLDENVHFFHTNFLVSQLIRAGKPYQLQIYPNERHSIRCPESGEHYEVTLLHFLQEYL

SMILES | IC50 [1] [nM] | IC50 [2] [nM] | IC50 [3] [nM] | IC50 [4, 6] [nM] | IC50 [4, 7] [nM] | inhibition at 1 µM [4] [%] | AUC(0-t) ([5]; plasma) [ng·h/mL] | bioavailability ([5]; plasma) [%] | inhibition at 1 µM [4, 8] [%] | IC50 [4] [nM] | IC50 ([4]; read-out: rhFAPα (exo IC50), Table 3, exopeptidase) [nM] | bioavailability ([5]; in vivo) [%] | AUC(0-t) ([5]; in vivo, plasma) [ng·h/mL]
N#C[C@@H]1CC(F)(F)CN1C(=O)CNC(=O)c1ccncc1-c1ccccc1 [Compound 13, (S)—N-(2-(2-cyano-4,4-difluoropyrrolidin-1-yl)-2-oxoethyl)-3-phenylisonicotinamide] | > 10000 | > 10000 | 1000 to 10000 | < 1000 | < 1000 | > 50 | 760 | 27.9 | – | – | – | – | –
N#C[C@@H]1CC(F)(F)CN1C(=O)CNC(=O)c1c[nH]c(=O)c(-c2ccccc2)c1 [Compound 14, (S)—N-(2-(2-cyano-4,4-difluoropyrrolidin-1-yl)-2-oxoethyl)-6-oxo-5-phenyl-1,6-dihydropyridine-3-carboxamide] | 1000 to 10000 | > 10000 | 1000 to 10000 | < 1000 | < 1000 | – | – | – | > 50 | – | – | – | –
N#C[C@@H]1CC(F)(F)CN1C(=O)CNC(=O)c1ccncc1C1CC1 [Compound 24, (S)—N-(2-(2-cyano-4,4-difluoropyrrolidin-1-yl)-2-oxoethyl)-3-cyclopropylisonicotinamide] | > 10000 | > 10000 | 1000 to 10000 | < 1000 | < 1000 | > 50 | 910 | 54 | – | – | – | – | –
N#C[C@@H]1CC(F)(F)CN1C(=O)CNC(=O)c1c[nH]c(=O)c2ccc(F)cc12 [Compound 26, (S)—N-(2-(2-cyano-4,4-difluoropyrrolidin-1-yl)-2-oxoethyl)-6-fluoro-1-oxo-1,2-dihydroisoquinoline-4-carboxamide] | < 1000 | 1000 to 10000 | 1000 to 10000 | < 1000 | < 1000 | – | – | – | > 50 | – | – | – | –
C=Cc1cnccc1C(=O)NCC(=O)N1CC(F)(F)C[C@H]1C#N [Compound 40, (S)—N-(2-(2-cyano-4,4-difluoropyrrolidin-1-yl)-2-oxoethyl)-3-vinylisonicotinamide] | > 10000 | > 10000 | > 10000 | < 1000 | < 1000 | – | – | – | > 50 | – | – | – | –
N#C[C@@H]1CC(F)(F)CN1C(=O)CNC(=O)c1ccncc1-c1cc(F)cc(F)c1 [Compound 47, (S)—N-(2-(2-cyano-4,4-difluoropyrrolidin-1-yl)-2-oxoethyl)-3-(3,5-difluorophenyl)isonicotinamide] | > 10000 | > 10000 | > 10000 | – | – | > 50 | – | – | – | < 1000 | < 1000 | – | –
N#C[C@@H]1CC(F)(F)CN1C(=O)CNC(=O)c1ccncc1Cc1ccccc1 [Compound 50, (S)-3-benzyl-N-(2-(2-cyano-4,4-difluoropyrrolidin-1-yl)-2-oxoethyl)isonicotinamide] | – | > 10000 | < 1000 | < 1000 | < 1000 | – | 1090 | 79.6 | > 50 | – | – | – | –
N#C[C@@H]1CC(F)(F)CN1C(=O)CNC(=O)c1ccncc1-c1ccc(F)cc1 [Compound 52, (S)—N-(2-(2-cyano-4,4-difluoropyrrolidin-1-yl)-2-oxoethyl)-3-(4-fluorophenyl)isonicotinamide] | > 10000 | > 10000 | > 10000 | < 1000 | < 1000 | > 50 | 721 | 30.3 | – | – | – | – | –
N#C[C@@H]1CC(F)(F)CN1C(=O)CNC(=O)c1ccncc1-c1cc(Cl)ccc1F [Compound 54, (S)-3-(5-chloro-2-fluorophenyl)-N-(2-(2-cyano-4,4-difluoropyrrolidin-1-yl)-2-oxoethyl)isonicotinamide] | > 10000 | > 10000 | > 10000 | < 1000 | < 1000 | – | – | – | > 50 | – | – | – | –
Cn1ncc2c(-c3cnccc3C(=O)NCC(=O)N3CC(F)(F)C[C@H]3C#N)cccc21 [Compound 87, (S)—N-(2-(2-cyano-4,4-difluoropyrrolidin-1-yl)-2-oxoethyl)-3-(1-methyl-1H-indazol-4-yl)isonicotinamide] | 1000 to 10000 | > 10000 | > 10000 | < 1000 | < 1000 | – | – | – | > 50 | – | – | – | –
N#C[C@@H]1CC(F)(F)CN1C(=O)CNC(=O)c1ccncc1N1CCOCC1 [Compound 88, N-[2-[(2S)-2-cyano-4,4-difluoro-pyrrolidin-1-yl]-2-oxo-ethyl]-3-morpholino-pyridine-4-carboxamide] | 1000 to 10000 | 1000 to 10000 | 1000 to 10000 | < 1000 | < 1000 | – | – | – | > 50 | – | – | – | –
N#C[C@@H]1CC(F)(F)CN1C(=O)CNC(=O)c1ccncc1C1=CCNCC1 [Compound 105, (S)—N-(2-(2-cyano-4,4-difluoropyrrolidin-1-yl)-2-oxoethyl)-1′,2′,3′,6′-tetrahydro-[3,4′-bipyridine]-4-carboxamide 2,2,2-trifluoroacetate] | > 10000 | > 10000 | > 10000 | < 1000 | < 1000 | > 50 | – | – | – | – | – | 3 | 18.3
C=C(c1ccccc1)c1cnccc1C(=O)NCC(=O)N1CC(F)(F)C[C@H]1C#N [Compound 122, (S)—N-(2-(2-cyano-4,4-difluoropyrrolidin-1-yl)-2-oxoethyl)-3-(1-phenylvinyl)isonicotinamide] | > 10000 | > 10000 | > 10000 | < 1000 | < 1000 | > 50 | – | – | – | – | – | – | –

— patent publication US11780821B2, “Inhibitors of fibroblast activation protein” (Praxis Biotech LLC, priority 2017, dated 2023)
